Here are results for 64 compounds from patent US9006450B2 (Boehringer Ingelheim International GmbH, priority 2010, dated 2015).

A word on the IC50: it is the concentration needed to halve the response being measured.

The target of this test is T1, human ACC2 (Homo sapiens, UniProt O00763).
T1 construct: made in house; host or cells: insect cells (baculoviral expression system)
T1 sequence (O00763 129-2458 limits assumed): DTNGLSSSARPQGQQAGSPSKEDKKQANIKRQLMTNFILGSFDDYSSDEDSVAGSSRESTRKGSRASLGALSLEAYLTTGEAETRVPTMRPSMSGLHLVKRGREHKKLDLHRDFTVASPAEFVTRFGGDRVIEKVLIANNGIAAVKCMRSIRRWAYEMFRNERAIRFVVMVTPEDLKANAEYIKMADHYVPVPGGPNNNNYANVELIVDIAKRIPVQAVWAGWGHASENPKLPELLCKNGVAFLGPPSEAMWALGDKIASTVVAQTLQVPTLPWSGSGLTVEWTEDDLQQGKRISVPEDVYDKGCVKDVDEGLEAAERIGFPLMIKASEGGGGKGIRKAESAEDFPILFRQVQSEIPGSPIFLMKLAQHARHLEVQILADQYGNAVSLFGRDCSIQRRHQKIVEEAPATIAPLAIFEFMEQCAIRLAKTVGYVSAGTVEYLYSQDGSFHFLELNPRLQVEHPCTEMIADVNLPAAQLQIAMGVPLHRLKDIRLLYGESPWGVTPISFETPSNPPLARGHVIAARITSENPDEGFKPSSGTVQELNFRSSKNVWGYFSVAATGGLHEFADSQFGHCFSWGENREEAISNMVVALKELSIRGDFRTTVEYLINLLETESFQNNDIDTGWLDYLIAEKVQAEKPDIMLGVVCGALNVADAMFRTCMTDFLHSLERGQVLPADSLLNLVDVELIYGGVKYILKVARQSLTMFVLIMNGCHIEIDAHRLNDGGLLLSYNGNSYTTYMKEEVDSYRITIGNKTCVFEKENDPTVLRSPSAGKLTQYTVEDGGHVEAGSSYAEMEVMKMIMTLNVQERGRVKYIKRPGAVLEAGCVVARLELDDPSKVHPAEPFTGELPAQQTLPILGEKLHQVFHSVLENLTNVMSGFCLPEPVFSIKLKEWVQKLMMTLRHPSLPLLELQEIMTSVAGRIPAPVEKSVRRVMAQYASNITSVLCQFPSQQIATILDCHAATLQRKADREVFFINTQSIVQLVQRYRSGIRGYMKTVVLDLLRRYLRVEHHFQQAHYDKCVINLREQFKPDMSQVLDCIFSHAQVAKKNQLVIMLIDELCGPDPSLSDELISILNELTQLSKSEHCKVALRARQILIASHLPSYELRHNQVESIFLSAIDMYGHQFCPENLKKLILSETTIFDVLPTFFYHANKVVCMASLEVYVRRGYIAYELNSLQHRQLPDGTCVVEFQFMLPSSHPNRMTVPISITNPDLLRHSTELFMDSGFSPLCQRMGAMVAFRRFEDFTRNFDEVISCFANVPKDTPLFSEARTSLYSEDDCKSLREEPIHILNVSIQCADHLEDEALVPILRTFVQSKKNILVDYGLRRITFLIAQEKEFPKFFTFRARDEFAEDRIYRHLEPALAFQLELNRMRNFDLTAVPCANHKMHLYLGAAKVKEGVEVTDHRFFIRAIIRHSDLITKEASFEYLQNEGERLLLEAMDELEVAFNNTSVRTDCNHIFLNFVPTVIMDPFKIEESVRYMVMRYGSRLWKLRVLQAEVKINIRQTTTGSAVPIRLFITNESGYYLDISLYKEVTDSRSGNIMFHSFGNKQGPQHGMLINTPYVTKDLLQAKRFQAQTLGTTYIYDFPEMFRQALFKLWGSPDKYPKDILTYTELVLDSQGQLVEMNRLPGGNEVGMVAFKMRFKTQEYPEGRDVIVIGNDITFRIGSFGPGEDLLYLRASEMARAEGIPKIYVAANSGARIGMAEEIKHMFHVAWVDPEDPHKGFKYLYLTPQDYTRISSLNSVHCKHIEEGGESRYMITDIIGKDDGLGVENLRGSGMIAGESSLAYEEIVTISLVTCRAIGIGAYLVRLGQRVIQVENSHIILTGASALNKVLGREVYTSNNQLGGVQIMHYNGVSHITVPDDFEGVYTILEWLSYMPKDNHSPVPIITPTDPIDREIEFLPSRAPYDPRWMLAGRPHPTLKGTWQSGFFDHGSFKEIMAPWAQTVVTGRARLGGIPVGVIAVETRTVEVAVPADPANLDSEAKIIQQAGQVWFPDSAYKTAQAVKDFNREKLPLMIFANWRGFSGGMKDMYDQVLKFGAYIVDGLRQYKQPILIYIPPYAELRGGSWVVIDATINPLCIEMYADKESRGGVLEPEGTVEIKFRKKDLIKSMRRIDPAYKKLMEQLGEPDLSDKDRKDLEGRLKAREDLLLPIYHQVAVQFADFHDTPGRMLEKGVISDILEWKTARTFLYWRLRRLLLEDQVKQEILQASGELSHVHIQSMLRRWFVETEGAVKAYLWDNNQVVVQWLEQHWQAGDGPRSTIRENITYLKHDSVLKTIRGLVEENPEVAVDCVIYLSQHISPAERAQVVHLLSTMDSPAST
The test is described as follows: ACC2 assay, spectrophotometric 384 well assay (NADH-linked, coupled lactate dehydrogenase/pyruvate kinase). To be noted: ACC2 assay, hACC2 construct lacking 128 N-terminal amino acids, 25° C., 340 nm; read-out: IC50. The format is biochemical. The essentials: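 ADP output tracked via pyruvate kinase/lactate dehydrogenase NADH oxidation, slope at 340 nm over 15 min, 25° C, with 500 μM ATP and 200 μM each acetyl-CoA and NADH. Enzyme: insect-cell-expressed human ACC2, N-terminal 128 residues deleted; pH 7.5 Tris with citrate, KHCO3. IC50 from four-parameter regression versus vehicle and no-acetyl-CoA controls.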
`CC(=O)N[C@@H](C)c1ccc(C2CCN(c3ncc(C(=O)NCC4CCCCO4)cn3)CC2)cc1` (stereo partly shown) [Example 18.41]: the 50% inhibitory concentration (IC50) is 21.4 µM.
The value for `CC(=O)N[C@@H](C)c1ccc(C2CCN(c3ncc(C(=O)N(C)CC#N)cn3)CC2)cc1` [Example 18.42] was 14 µM; that for `CC(=O)N[C@@H](C)c1ccc(C2CCN(c3ncc(C(=O)N(C)CCN(C)C)cn3)CC2)cc1` [Example 18.43] was 16.8 µM.
The value for `CCN1CCCC1CNC(=O)c1cnc(N2CCC(c3ccc([C@H](C)NC(C)=O)cc3)CC2)nc1` (stereo partly shown) [Example 18.44] was 18.3 µM; that for `CC(=O)N[C@@H](C)c1ccc(C2CCN(c3ncc(C(=O)NCC(N)=O)cn3)CC2)cc1` [Example 18.45] was 17.2 µM; that for `CC(=O)N[C@@H](C)c1ccc(C2CCN(c3ncc(C(=O)N4Cc5ccncc5C4)cn3)CC2)cc1` [Example 18.46] was 6 µM.
For the compound `CC(=O)N[C@@H](C)c1ccc(C2CCN(c3ncc(C(=O)NCCCO)cn3)CC2)cc1` [Example 18.47], the IC50 turned out to be 29.1 µM.
The value for `CC(=O)N[C@@H](C)c1ccc(C2CCN(c3ncc(C(=O)NC(C)C)cn3)CC2)cc1` [Example 18.48] was 3.6 µM; that for `CC(=O)N[C@@H](C)c1ccc(C2CCN(c3ncc(C(=O)NC[C@H](O)CO)cn3)CC2)cc1` [Example 18.50] was 13.3 µM; that for `CC(=O)N[C@@H](C)c1ccc(C2CCN(c3ncc(C(=O)NCCN4CCCC4)cn3)CC2)cc1` [Example 18.51] was 13.8 µM.
`CC(=O)N[C@@H](C)c1ccc(C2CCN(c3ncc(C(=O)N4CCN(C)CC4)cn3)CC2)cc1` [Example 18.52]: the IC50 came out at 13.6 µM.
Under `CC(=O)N[C@@H](C)c1ccc(C2CCN(c3ncc(C(=O)N4CCN(C(C)=O)CC4)cn3)CC2)cc1` [Example 18.53] stands 15.1 µM.
Turning to `CC(=O)N[C@@H](C)c1ccc(C2CCN(c3ncc(C(=O)N4CCCC4)cn3)CC2)cc1` [Example 18.54], the IC50 was 2.1 µM.
Under `COCCNC(=O)c1cnc(N2CCC(c3ccc([C@H](C)NC(C)=O)cc3)CC2)nc1` [Example 18.55] stands 8.8 µM; under `CC(=O)N[C@@H](C)c1ccc(C2CCN(c3ncc(C(=O)NCCC4CCCN4C)cn3)CC2)cc1` (stereo partly shown) [Example 18.56], 14.9 µM.
Under `CC(=O)N[C@@H](C)c1ccc(C2CCN(c3ncc(C(=O)NCC4CCCO4)cn3)CC2)cc1` (stereo partly shown) [Example 18.57] stands 22.4 µM.
Under `CNCCNC(=O)c1cnc(N2CCC(c3ccc([C@H](C)NC(C)=O)cc3)CC2)nc1` [Example 18.58] stands 18.1 µM.
Turning to `CC(=O)N[C@@H](C)c1ccc(C2CCN(c3ncc(C(=O)NCCN4CCCCC4)cn3)CC2)cc1` [Example 18.59], the IC50 was 18.5 µM.
Under `CC(=O)N[C@@H](C)c1ccc(C2CCN(c3ncc(C(=O)NCC4CCNCC4)cn3)CC2)cc1` [Example 18.60] stands 15.5 µM; under `CC(=O)N[C@@H](C)c1ccc(C2CCN(c3ncc(C(=O)N4CCC(C(N)=O)CC4)cn3)CC2)cc1` [Example 18.61], 18.9 µM.
The value for `CC(=O)N[C@@H](C)c1ccc(C2CCN(c3ncc(C(=O)NCC4CCN(Cc5ccccc5)C4)cn3)CC2)cc1` (stereo partly shown) [Example 18.62] was 11.8 µM.
The value for `CC(=O)N[C@@H](C)c1ccc(C2CCN(c3ncc(C(=O)NCC(O)C(F)(F)F)cn3)CC2)cc1` (stereo partly shown) [Example 18.63] was 23.1 µM; that for `CC(=O)N[C@@H](C)c1ccc(C2CCN(c3ncc(C(=O)NCCS(C)(=O)=O)cn3)CC2)cc1` [Example 18.64] was 25.4 µM.
With `CC(=O)N[C@@H](C)c1ccc(C2CCN(c3ncc(C(=O)NCC4CCCCN4)cn3)CC2)cc1` (stereo partly shown) [Example 18.65], the IC50 stood at 10.2 µM.
The value for `CC(=O)N[C@@H](C)c1ccc(C2CCN(c3ncc(C(=O)NCCC(=O)N(C)C)cn3)CC2)cc1` [Example 18.66] was 15.8 µM.
The value for `CC(=O)N[C@@H](C)c1ccc(C2CCN(c3ncc(C(=O)NCC4CCN(c5ccccc5)C4)cn3)CC2)cc1` (stereo partly shown) [Example 18.67] was 23.7 µM.
The value for `CC(=O)N[C@@H](C)c1ccc(C2CCN(c3ncc(C(=O)N(C)CC4(C)COC4)cn3)CC2)cc1` [Example 18.68] was 19 µM; that for `CC(=O)N[C@@H](C)c1ccc(C2CCN(c3ncc(C(=O)N(C)C4CCS(=O)(=O)C4)cn3)CC2)cc1` (stereo partly shown) [Example 18.69] was 20.8 µM.
Regarding `CC(=O)N[C@@H](C)c1ccc(C2CCN(c3ncc(C(=O)NC4(C#N)CC4)cn3)CC2)cc1` [Example 18.70], the IC50 was determined as 17.4 µM.
Regarding `CC(=O)N[C@@H](C)c1ccc(C2CCN(c3ncc(C(=O)N4CCC(C#N)CC4)cn3)CC2)cc1` [Example 18.71], the IC50 is 14.8 µM.
The value for `CNC(=O)CNC(=O)c1cnc(N2CCC(c3ccc([C@H](C)NC(C)=O)cc3)CC2)nc1` [Example 18.72] was 8.9 µM.
On to `CC(=O)N[C@@H](C)c1ccc(C2CCN(c3ncc(C(=O)NCCn4ccnc4)cn3)CC2)cc1` [Example 18.73], for which the IC50 came to 17.9 µM.
The value for `CC(=O)N[C@@H](C)c1ccc(C2CCN(c3ncc(C(=O)N[C@H]4C[C@H](N)C4)cn3)CC2)cc1` [Example 18.74] was 24.5 µM.
The value for `CC(=O)N[C@@H](C)c1ccc(C2CCN(c3ncc(C(=O)NCCC(C)O)cn3)CC2)cc1` (stereo partly shown) [Example 18.75] was 17.8 µM; that for `CC(=O)N[C@@H](C)c1ccc(C2CCN(c3ncc(C(=O)N4CCC4)cn3)CC2)cc1` [Example 18.76] was 4 µM.
Turning to `CC(=O)N[C@@H](C)c1ccc(C2CCN(c3ncc(C(=O)NCC4CC4)cn3)CC2)cc1` [Example 18.77], the IC50 amounted to 1.7 µM.
The value for `CC(=O)N[C@@H](C)c1ccc(C2CCN(c3ncc(C(=O)Nc4cc(C)on4)cn3)CC2)cc1` [Example 18.78] was 12.7 µM; that for `CC(=O)N[C@@H](C)c1ccc(C2CCN(c3ncc(C(=O)NC4CCNCC4)cn3)CC2)cc1` [Example 18.79] was 16.7 µM; that for `CC(=O)N[C@@H](C)c1ccc(C2CCN(c3ncc(C(=O)NCCC#N)cn3)CC2)cc1` [Example 18.80] was 27.2 µM.
As to `CC(=O)N[C@@H](C)c1ccc(C2CCN(c3ncc(C(=O)NC4CCN(C)C4)cn3)CC2)cc1` (stereo partly shown) [Example 18.81], the IC50 amounted to 16.5 µM.
As for `CC(=O)N[C@@H](C)c1ccc(C2CCN(c3ncc(C(=O)NCCC(N)=O)cn3)CC2)cc1` [Example 18.82], the IC50 was determined as 6.2 µM.
For the compound `CC(=O)N[C@@H](C)c1ccc(C2CCN(c3ncc(C(=O)NCC4OCCO4)cn3)CC2)cc1` [Example 18.83], the IC50 was found to be 8.7 µM.
The value for `CC(=O)N[C@@H](C)c1ccc(C2CCN(c3ncc(C(=O)N(C)C4CCN(C)C4)cn3)CC2)cc1` (stereo partly shown) [Example 18.84] was 18.1 µM.
Under `CC(=O)N[C@@H](C)c1ccc(C2CCN(c3ncc(C(=O)Nc4ccc(CN(C)C)cc4)cn3)CC2)cc1` [Example 18.86] stands 11.3 µM; under `CC(=O)N[C@@H](C)c1ccc(C2CCN(c3ncc(C(=O)N4CCCC4CN(C)C)cn3)CC2)cc1` (stereo partly shown) [Example 18.88], 16.6 µM; under `CC(=O)N[C@@H](C)c1ccc(C2CCN(c3ncc(C(=O)N(C)c4ccccc4)cn3)CC2)cc1` [Example 18.89], 1.2 µM.
Under `CCNC(=O)c1cnc(N2CCC(c3ccc([C@H](C)NC(C)=O)cc3)CC2)nc1` [Example 18.90] stands 1.2 µM; under `CCN(CC)C(=O)c1cnc(N2CCC(c3ccc([C@H](C)NC(C)=O)cc3)CC2)nc1` [Example 18.91], 0.91 µM.
Regarding `CC(=O)N[C@@H](C)c1ccc(C2CCN(c3ncc(C(=O)NCc4ccccc4)cn3)CC2)cc1` [Example 18.92], the concentration for half-maximal inhibition (IC50) is 2.2 µM.
The value for `CC(=O)N[C@@H](C)c1ccc(C2CCN(c3ncc(C(=O)N(C)Cc4ccccc4)cn3)CC2)cc1` [Example 18.93] was 0.8 µM; that for `CC(=O)N[C@@H](C)c1ccc(C2CCN(c3ncc(C(=O)N4CCOCC4)cn3)CC2)cc1` [Example 18.94] was 2.2 µM; that for `CC(=O)N[C@@H](C)c1ccc(C2CCN(c3ncc(C(=O)Nc4ccccc4)cn3)CC2)cc1` [Example 18.95] was 0.19 µM.
Under `CC(=O)N[C@@H](C)c1ccc(C2CCN(c3ccnc(OCC(C)C)c3)CC2)cc1` [Example 19.1, (S)—N-{1-[4-(2′-Isobutoxy-3,4,5,6-tetrahydro-2H-[1,4′]bipyridinyl-4-yl)-phenyl]-ethyl}-acetamide] stands 0.11 µM; under `CC(=O)N[C@@H](C)c1ccc(C2CCN(c3ccnc(OC4CCC4)c3)CC2)cc1` [Example 19.2], 0.04 µM; under `COCCOc1cc(N2CCC(c3ccc([C@H](C)NC(C)=O)cc3)CC2)ccn1` [Example 19.3], 0.7 µM.
The value for `CC(=O)N[C@@H](C)c1ccc(C2CCN(c3ccnc(OC4CCCC4)c3)CC2)cc1` [Example 19.4] was 0.07 µM; that for `CC(=O)N[C@@H](C)c1ccc(C2CCN(c3ccnc(OCC(C)(C)C)c3)CC2)cc1` [Example 19.5] was 0.08 µM; that for `CC(=O)N[C@@H](C)c1ccc(C2CCN(c3ccnc(OC4CCCCC4)c3)CC2)cc1` [Example 19.6] was 0.08 µM.
Turning to `CC(=O)N[C@@H](C)c1ccc(C2CCN(c3ccnc(OC(C)c4ccccc4)c3)CC2)cc1` (stereo partly shown) [Example 19.7], the IC50 is 0.59 µM.
`COc1cccc(COc2cc(N3CCC(c4ccc([C@H](C)NC(C)=O)cc4)CC3)ccn2)c1` [Example 19.8]: the IC50 is 1.5 µM.
Under `CC(=O)N[C@@H](C)c1ccc(C2CCN(c3ccnc(OCCc4ccccc4)c3)CC2)cc1` [Example 19.9] stands 1.3 µM.
Under `CC(=O)N[C@@H](C)c1ccc(C2CCN(c3ccnc(OCC4CC4)c3)CC2)cc1` [Example 19.10] stands 0.1 µM; under `CC(=O)N[C@@H](C)c1ccc(C2CCN(c3ccnc(OCC4CCC4)c3)CC2)cc1` [Example 19.11], 0.14 µM.
The value for `CC(=O)N[C@@H](C)c1ccc(C2CCN(c3ccnc(OCCC4CC4)c3)CC2)cc1` [Example 19.12] was 0.18 µM.
